Legend:
Assay in all cases: relative viability (nuclei count vs DMSO), 5 days (fraction); higher = more cells survive
[1] = compound: C1=CC2=NC=CN=C2C=C1/C=C/3\C(=O)NC(=O)S3 + COc1cccc2cc(-c3nc([C@H]4CC[C@H](C(=O)O)CC4)n4ncnc(N)c34)[nH]c12 [OSI-027] (partner 0.5 µM)
In short: (§1)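 Relative viability is defined as nuclei in treated wells over nuclei in vehicle wells. Duplicate plates were run and medians reported. Lung cancer cell lines in 1536-well plates were dosed by pin tool one day after seeding, with one drug or with a fixed anchor-drug dose plus five library-drug doses (not always all listed) in √10 steps, and nuclei were counted after 5 days.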

[2] = compound: C1=CC2=NC=CN=C2C=C1/C=C/3\C(=O)NC(=O)S3 + Cc1cc(Nc2cc(N3CCN(C)CC3)nc(Sc3ccc(NC(=O)C4CC4)cc3)n2)n[nH]1 [Tozasertib] (partner 0.1 µM)
In short: as §1

[3] = compound: C1=CC2=NC=CN=C2C=C1/C=C/3\C(=O)NC(=O)S3 + NC(=O)Nc1cc(-c2cccc(F)c2)sc1C(=O)N[C@H]1CCCNC1 [AZD7762] (partner 0.2 µM)
In short: as §1

BGJ398 + Alpelisib = compound: CCN1CCN(c2ccc(Nc3cc(N(C)C(=O)Nc4c(Cl)c(OC)cc(OC)c4Cl)ncn3)cc2)CC1 [BGJ398] + Cc1nc(NC(=O)N2CCC[C@H]2C(N)=O)sc1-c1ccnc(C(C)(C)C(F)(F)F)c1 [Alpelisib] (partner 2 µM)
In short: as §1

Cell Line	relative viability ([1]; first compound 0.02 µM)	relative viability ([1]; first compound 0.06325 µM)	relative viability ([1]; first compound 0.2 µM)	relative viability ([1]; first compound 0.6325 µM)	relative viability ([1]; first compound 2 µM)	relative viability ([2]; first compound 0.02 µM)	relative viability ([2]; first compound 0.06325 µM)	relative viability ([2]; first compound 0.2 µM)	relative viability ([2]; first compound 0.6325 µM)	relative viability ([2]; first compound 2 µM)	relative viability ([3]; first compound 0.02 µM)	relative viability ([3]; first compound 0.06325 µM)	relative viability ([3]; first compound 0.2 µM)	relative viability ([3]; first compound 0.6325 µM)	relative viability ([3]; first compound 2 µM)	relative viability (BGJ398 + Alpelisib; first compound 0.01 µM)	relative viability (BGJ398 + Alpelisib; first compound 0.03162 µM)	relative viability (BGJ398 + Alpelisib; first compound 0.1 µM)	relative viability (BGJ398 + Alpelisib; first compound 0.3162 µM)	relative viability (BGJ398 + Alpelisib; first compound 1 µM)
NCI-H2342	0.506	0.682	0.628	0.632	0.535	0.438	0.561	0.688	0.465	0.469	0.377	0.47	0.453	0.397	0.335	–	–	–	–	–
SK-MES-1	0.658	0.467	0.715	0.577	0.392	0.894	0.884	0.998	0.965	0.934	–	–	–	–	–	0.826	1	0.815	0.866	0.57
HCC-366	0.727	–	1.06	0.823	0.322	0.114	–	0.135	0.108	0.123	0.276	–	0.247	0.235	0.303	0.417	0.478	0.676	0.404	0.348
201T	0.664	0.682	0.714	0.671	0.23	0.8	0.922	0.917	0.873	0.854	0.651	0.531	0.625	0.609	0.576	1.08	1.01	0.893	0.964	0.994
HCC-827	0.771	0.725	0.765	0.741	0.779	0.403	0.446	0.417	0.38	0.472	0.218	0.155	0.261	0.265	0.114	0.821	–	1.1	0.962	1.05
NCI-H647	0.531	0.84	0.633	0.532	0.515	0.398	0.258	0.423	0.268	0.357	0.714	0.403	0.572	0.425	0.382	1.05	1.19	1.06	1.26	1.15
NCI-H2023	0.423	0.346	0.478	0.326	0.161	0.404	0.321	0.472	0.379	0.335	–	–	–	–	–	0.576	0.644	0.534	0.586	0.579
NCI-H520	0.25	0.356	0.249	0.27	0.36	0.394	0.378	0.451	0.416	0.458	–	–	–	–	–	0.888	0.886	0.506	0.414	0.243
RERF-LC-KJ	0.571	0.569	0.704	0.606	0.332	0.443	0.613	0.592	0.452	0.46	0.707	0.894	0.962	0.943	0.624	0.922	0.85	0.816	0.833	0.79
A-427	0.476	0.55	0.54	0.435	0.365	0.209	0.241	0.198	0.198	0.228	0.826	0.849	0.709	0.8	0.776	1.08	1.07	0.944	0.848	0.662
NCI-H441	0.742	0.695	0.759	0.669	0.405	0.661	0.828	0.743	0.62	0.366	1.07	1.18	1.3	1	1.1	0.775	0.707	0.644	0.73	0.593
NCI-H1703	–	–	–	–	–	–	–	–	–	–	0.126	0.109	0.135	0.124	0.128	0.331	0.394	0.348	0.332	0.359
NCI-H1792	0.722	0.65	0.728	0.666	0.294	–	–	–	–	–	0.675	–	0.642	0.667	0.348	0.634	0.755	0.898	0.706	0.456
Calu-6	–	–	–	–	–	–	–	–	–	–	–	–	–	–	–	0.861	1.01	0.984	0.999	0.944
SK-LU-1	0.371	0.358	0.332	0.396	0.207	0.367	0.297	0.381	0.357	0.316	–	–	–	–	–	0.939	0.885	1.02	0.971	0.796
PC-3 [JPC-3]	0.711	0.777	0.783	0.767	0.636	0.811	0.811	0.905	0.913	0.869	0.966	1.02	0.9	0.846	0.713	1.05	–	1.04	0.948	0.973
EMC-BAC-2	0.307	0.436	0.416	0.37	0.251	0.276	0.253	0.368	0.243	0.297	1.11	1.18	1.21	1.08	0.651	0.727	0.77	0.786	0.787	0.738
LK-2	0.225	0.23	0.201	0.184	0.147	0.174	0.189	0.159	0.191	0.165	0.43	0.538	0.466	0.4	0.14	0.813	0.936	0.557	0.381	0.311
NCI-H2126	0.627	0.629	0.735	0.734	0.363	0.841	0.882	0.857	0.759	0.528	0.886	1.16	0.952	0.937	0.581	0.78	0.746	0.735	0.766	0.853
NCI-H3122	0.935	1.16	0.89	1.03	0.46	0.401	0.418	0.331	0.38	0.4	0.989	1	0.984	0.991	0.913	0.835	0.844	0.763	0.717	0.832
NCI-H1975	0.708	0.805	0.808	0.619	0.417	0.804	0.917	0.759	0.712	0.708	0.589	0.632	0.705	0.747	0.418	0.601	0.642	0.745	0.667	0.61

Cell Line	relative viability ([1]; first compound 0.02 µM)	relative viability ([1]; first compound 0.06325 µM)	relative viability ([1]; first compound 0.2 µM)	relative viability ([1]; first compound 0.6325 µM)	relative viability ([1]; first compound 2 µM)	relative viability ([2]; first compound 0.02 µM)	relative viability ([2]; first compound 0.06325 µM)	relative viability ([2]; first compound 0.2 µM)	relative viability ([2]; first compound 0.6325 µM)	relative viability ([2]; first compound 2 µM)	relative viability ([3]; first compound 0.02 µM)	relative viability ([3]; first compound 0.06325 µM)	relative viability ([3]; first compound 0.2 µM)	relative viability ([3]; first compound 0.6325 µM)	relative viability ([3]; first compound 2 µM)	relative viability (BGJ398 + Alpelisib; first compound 0.01 µM)	relative viability (BGJ398 + Alpelisib; first compound 0.03162 µM)	relative viability (BGJ398 + Alpelisib; first compound 0.1 µM)	relative viability (BGJ398 + Alpelisib; first compound 0.3162 µM)	relative viability (BGJ398 + Alpelisib; first compound 1 µM)
NCI-H1944	0.412	0.395	0.427	0.385	0.258	0.254	0.206	0.261	0.239	0.238	0.52	0.448	0.535	0.403	0.437	0.689	0.816	0.899	0.805	0.845
LU99A	0.298	0.332	0.295	0.293	0.218	0.264	0.284	0.238	0.308	0.251	0.392	0.352	0.369	0.36	0.223	0.532	0.49	0.534	0.487	0.411
SW 1573	0.63	0.946	0.725	0.532	0.312	0.192	0.201	0.183	0.183	0.204	–	–	–	–	–	0.689	0.961	0.765	0.761	0.789
NCI-H2347	0.505	0.306	0.412	0.5	0.276	0.553	0.554	0.546	0.633	0.601	0.773	0.692	0.778	0.745	0.704	1.01	1.04	1.01	1.13	1.08
NCI-H2009	0.682	0.659	0.701	0.579	0.452	0.747	0.77	0.721	0.744	0.761	–	–	–	–	–	1.13	1.19	1.11	1.17	1.09
HCC-15	0.759	0.672	0.726	0.641	0.373	0.374	0.333	0.303	0.393	0.49	1.01	1.05	1.16	1.18	1	0.88	0.909	0.976	0.91	1.02
COR-L23	0.781	0.898	0.873	0.74	0.497	0.168	0.218	0.19	0.211	0.188	–	–	–	–	–	0.755	0.872	0.686	0.843	0.824
NCI-H1299	–	–	–	–	–	–	–	–	–	–	–	–	–	–	–	0.999	1.07	1	1.05	1.08
NCI-H1650	0.688	0.605	0.783	0.677	0.493	0.434	0.446	0.459	0.375	0.411	–	–	–	–	–	–	–	–	–	–
COR-L 105	0.743	0.669	0.729	0.623	0.435	0.311	0.369	0.343	0.349	0.354	–	–	–	–	–	0.919	0.956	0.979	1.05	1.06
ChaGo-K-1	0.567	0.58	0.544	0.424	0.352	0.243	0.215	0.248	0.232	0.239	0.799	0.821	0.905	0.791	0.83	–	–	–	–	–
NCI-H2228	0.665	0.581	0.525	0.661	0.335	0.302	0.228	0.234	0.21	0.221	–	–	–	–	–	0.609	0.616	0.776	0.718	0.696
NCI-H1648	0.238	–	0.313	0.246	0.261	0.408	–	0.629	0.404	0.416	0.659	0.562	0.806	–	0.706	–	–	–	–	–
NCI-H661	0.785	0.796	0.682	0.621	0.584	0.389	0.368	0.352	0.335	0.374	–	–	–	–	–	0.594	1.08	0.715	0.526	0.614
NCI-H1563	0.834	0.823	0.76	0.734	0.65	–	–	–	–	–	–	–	–	–	–	0.858	0.96	0.802	0.778	0.677
A549	–	–	–	–	–	–	–	–	–	–	–	–	–	–	–	0.782	0.864	0.847	0.635	0.872
NCI-H522	0.706	0.763	0.675	0.717	0.562	0.64	0.504	0.641	0.542	0.549	0.811	0.919	1.07	0.772	0.86	–	–	–	–	–
NCI-H1623	0.411	0.415	0.419	0.421	0.253	0.405	0.413	0.473	0.403	0.38	–	–	–	–	–	–	–	–	–	–
SW 900	0.635	0.499	0.602	0.608	0.504	0.453	0.607	0.702	0.545	0.566	0.653	0.571	0.652	–	0.525	–	–	–	–	–
IA-LM	–	–	–	–	–	–	–	–	–	–	–	–	–	–	–	0.541	0.898	0.733	0.625	0.702
EBC-1	–	–	–	–	–	–	–	–	–	–	–	–	–	–	–	0.806	0.85	0.917	0.812	0.884

— the supplement of paper PMC10307832
